In patent US8198456B2, “Dihydropyridine derivatives as useful as protein kinase inhibitors” (Bayer Intellectual Property GmbH, priority 2006, dated 2012) one finds IC50 data, which are given here for 27 compounds.

T1 sequence (P08581 960-1390): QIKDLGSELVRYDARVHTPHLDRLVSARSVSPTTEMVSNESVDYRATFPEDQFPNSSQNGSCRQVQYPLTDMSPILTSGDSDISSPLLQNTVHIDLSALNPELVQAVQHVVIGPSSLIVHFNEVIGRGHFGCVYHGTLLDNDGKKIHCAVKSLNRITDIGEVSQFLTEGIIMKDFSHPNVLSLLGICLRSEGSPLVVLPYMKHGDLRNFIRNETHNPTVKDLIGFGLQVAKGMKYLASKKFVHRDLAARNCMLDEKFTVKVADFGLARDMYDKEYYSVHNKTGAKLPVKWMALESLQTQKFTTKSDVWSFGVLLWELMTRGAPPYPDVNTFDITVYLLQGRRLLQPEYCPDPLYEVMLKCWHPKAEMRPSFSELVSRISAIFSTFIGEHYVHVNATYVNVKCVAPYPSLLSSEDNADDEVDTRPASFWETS

This experiment addresses T1, recombinant human c-MET kinase enzyme domain (Homo sapiens, UniProt P08581).
T1 construct: Recombinant c-Met kinase domain (amino acids 960-1390); His (N); made in house; host or cells: baculovirus expression system (insect cells; SF21 is named only for the alternative format)
Description: c-MET receptor tyrosine kinase Homogeneous Time Resolved Fluorescence assay (HTRF). In kind it is biochemical. Particulars: Biological Example 1 and/or Biological Example 2. The source says: Recombinant c-Met kinase domain (amino acids 960-1390) was produced in a baculovirus expression vector as an N-terminal His-tagged fusion protein and purified on a NiNTA column. The resulting purified enzyme was then used in the following c-Met Homogeneous Time Resolved Fluorescence assay (HTRF) to find compounds of the invention and to perform initial activity determinations. Specifically, this assay measures the ability of compounds of the invention to inhibit the phosphorylation of a randomly synthesized, biotinylated heterocopolymeric polypeptide composed of glutamic acid and tyrosine, with an average length of 100 aa. The assay analyzes the amount of phosphorylated polypeptide produced.
The enzymatic phosphorylation of the biotinylated heterocopolymeric polypeptide was performed in a black 384-well plate at ambient temperature in a reaction mixture containing 50 mM HEPES (pH 7.4), 5 mM MgCl2, 5 mM MnCl2, 0.01% Tween-20, and 2 mM DTT, […] recombinant human c-MET kinase enzyme domain, 37 nM biotinylated heterocopolymeric polypeptide composed of glutamic acid and tyrosine, 20 μM ATP, 1% DMSO in the absence or presence of a compound of the invention. The reaction was stopped after a 20-minute incubation by the addition of 80 mM EDTA.
The formation of phosphorylated heterocopolymeric, biotinylated polypeptide was quantified with the HTRF assay technology using an anti-phosphotyrosine antibody, PT66, conjugated to europium cryptate, mixed with a streptavidin-XL665 conjugate. Reduced or inhibited phosphorylation of the heterocopolymeric, biotinylated polypeptide prevents the anti-phosphotyrosine antibody from binding to the peptide, resulting in a loss of energy transfer to the streptavidin-XL665 conjugate.
Following the 384-well enzymatic phosphorylation reaction outlined above, the detection of phosphorylated heterocopolymeric, biotinylated polypeptide was performed by dilution of the stopped reaction mixture 2-fold with 50 mM HEPES (pH 7.0), 500 mM KF, 0.1% BSA, streptavidin-XL665 (20 nM), and anti-phosphotyrosine antibody PT66-crypate conjugate (6.4 ng/well) and incubation for four hours at ambient temperature. Plates were read in an Envision plate reader (PerkinElmer Life and Analytical Sciences, Inc., MA) simultaneously at 620 nm and 665 nm to obtain signal ratios of 665 nm/620 nm. Results of energy transfer were expressed as signal ratios of 665 nm/620 nm. Negative controls were samples without recombinant c-MET or c-MET treated with 100 mM EDTA.
For determination of IC50 values of particular compounds of the invention, eight serially diluted compound concentrations (at 1:3.16 dilution) were used in the assay. Controls without a compound of the invention or with a reference compound were run in parallel in the same assay plate.
Background: Time-resolved FRET reads energy transfer from a long-lived donor to a nearby acceptor.
Take `CC1=C(C#N)C(c2ccc3[nH]nc(NCCN)c3c2)C(C#N)=C(C)N1` [compound 308, 4-[3-[(2-aminoethyl)amino]-1H-indazol-5-yl]-1,4-dihydro-2,6-dimethyl-3,5-pyridinedicarbonitrile]: the IC50 is under 100 nM.
In the case of `CC1=C(C#N)C(c2ccc3[nH]nc(C(=O)O)c3c2)C(C#N)=C(C)N1` [compound 86, 5-(3,5-dicyano-1,4-dihydro-2,6-dimethyl-4-pyridinyl)-1H-indazole-3-carboxylic acid], the IC50 is under 100 nM.
The result for `COC(=O)Nc1cccc(C2C(C#N)=C(C)NC(C)=C2C#N)c1` [compound 34, [3-(3,5-dicyano-1,4-dihydro-2,6-dimethyl-4-pyridinyl)phenyl]-carbamic acid, methyl ester] reads 500 to 2500 nM; that for `CC1=C(C#N)C(c2ccc3[nH]nc(NCCO)c3c2)C(C#N)=C(C)N1` [compound 118, 1,4-dihydro-4-[3-[(2-hydroxyethyl)amino]-1H-indazol-5-yl]-2,6-dimethyl-3,5-pyridinedicarbonitrile], under 100 nM; that for `CC1=C(C#N)C(c2ccc3[nH]nc(N)c3c2)C(C#N)=C(c2ccc(Cl)cc2)N1` (stereo not drawn) [compound 264, 4-(3-amino-1H-indazol-5-yl)-2-(4-chlorophenyl)-1,4-dihydro-6-methyl-3,5-pyridinedicarbonitrile], under 100 nM.
Take `CC1=C(C#N)C(c2ccc3[nH]nc(NCc4cnc[nH]4)c3c2)C(C#N)=C(C)N1` [compound 150, 1,4-dihydro-4-[3-[(1H-imidazol-4-ylmethyl)amino]-1H-indazol-5-yl]-2,6-dimethyl-3,5-pyridinedicarbonitrile]: the IC50 is under 100 nM.
As to `CC1=C(C#N)C(c2ccc3[nH]nc(NCc4ccccc4)c3c2)C(C#N)=C(C)N1` [compound 105, 1,4-dihydro-2,6-dimethyl-4-[3-[(phenylmethyl)amino]-1H-indazol-5-yl]-3,5-pyridinedicarbonitrile], the IC50 was under 100 nM.
The result for `CC1=C(C#N)C(c2ccc3c(c2)c(N)nn3C(=O)c2ccccc2)C(C#N)=C(C)N1` [compound 95, 4-(3-amino-1-benzoyl-1H-indazol-5-yl)-1,4-dihydro-2,6-dimethyl-3,5-pyridinedicarbonitrile] reads under 100 nM; that for `CC1=C(C#N)C(c2ccc3[nH]ncc3c2)C(C#N)=C(c2cccc([N+](=O)[O-])c2)N1` (stereo not drawn) [compound 250, 1,4-dihydro-4-(1H-indazol-5-yl)-2-methyl-6-(3-nitrophenyl)-3,5-pyridinedicarbonitrile], under 100 nM; that for `CC1=C(C#N)C(c2ccc3[nH]nc(-c4cccnc4)c3c2)C(C#N)=C(C)N1` [compound 87, 1,4-dihydro-2,6-dimethyl-4-[3-(3-pyridinyl)-1H-indazol-5-yl]-3,5-pyridinedicarbonitrile], under 100 nM.
On to `COC(=O)c1cccc(C2C(C#N)=C(C)N(C)C(C)=C2C#N)c1` [compound 284, 3-(3,5-dicyano-1,4-dihydro-1,2,6-trimethyl-4-pyridinyl)-benzoic acid, methyl ester], for which the IC50 lay within 500 to 2500 nM.
Then `C#CCN1C(C)=C(C#N)C(c2ccc3[nH]ncc3c2)C(C#N)=C1C` [compound 302, 1,4-dihydro-4-(1H-indazol-5-yl)-2,6-dimethyl-1-(2-propynyl)-3,5-pyridinedicarbonitrile], with under 100 nM.
Then `COC(=O)c1ccc(CNc2n[nH]c3ccc(C4C(C#N)=C(C)NC(C)=C4C#N)cc23)cc1` [compound 135, 4-[[[5-(3,5-dicyano-1,4-dihydro-2,6-dimethyl-4-pyridinyl)-1H-indazol-3-yl]-amino]methyl]-benzoic acid methyl ester], with under 100 nM.
The result for `CC1=C(C#N)C(c2ccc3[nH]nc(Br)c3c2)C(C#N)=C(C)N1` [compound 151, 4-(3-bromo-1H-indazol-5-yl)-1,4-dihydro-2,6-dimethyl-3,5-pyridinedicarbonitrile] reads under 100 nM; that for `CC1=C(C#N)C(c2ccc3[nH]ncc3c2)C(C#N)=C(CCN)N1` (stereo not drawn) [compound 255, 2-(2-aminoethyl)-1,4-dihydro-4-(1H-indazol-5-yl)-6-methyl-3,5-pyridinedicarbonitrile], under 100 nM.
With `CC1=C(C#N)C(c2ccc3[nH]nc(C=O)c3c2)C(C#N)=C(C)N1` [compound 145, 4-(3-formyl-1H-indazol-5-yl)-1,4-dihydro-2,6-dimethyl-3,5-pyridinedicarbonitrile], the IC50 is under 100 nM.
As to `COC(=O)c1cccc(C2C(C#N)=C(C)NC(c3ccc(O)cc3)=C2C#N)c1` (stereo not drawn) [compound 234, 3-[3,5-dicyano-1,4-dihydro-2-(4-hydroxyphenyl)-6-methyl-4-pyridinyl]-benzoic acid, methyl ester], the IC50 fell in the range of 100 to 500 nM.
For the compound `CC1=C(C#N)C(c2ccc3[nH]ncc3c2)C(C#N)=C(c2ccc(CO)cc2)N1` (stereo not drawn) [compound 258, 1,4-dihydro-2-[4-(hydroxymethyl)phenyl]-4-(1H-indazol-5-yl)-6-methyl-3,5-pyridinedicarbonitrile], the IC50 is under 100 nM.
The result for `CC1=C(C#N)C(c2ccc3[nH]nc(-c4ccccn4)c3c2)C(C#N)=C(C)N1` [compound 88, 1,4-dihydro-2,6-dimethyl-4-[3-(2-pyridinyl)-1H-indazol-5-yl]-3,5-pyridinedicarbonitrile] reads under 100 nM; that for `CC1=C(C#N)C(c2ccc3[nH]nc(-c4ccc(CN(C)C)cc4)c3c2)C(C#N)=C(C)N1` [compound 138, 4-[3-[4-[(dimethylamino)methyl]phenyl]-1H-indazol-5-yl]-1,4-dihydro-2,6-dimethyl-3,5-pyridinedicarbonitrile], under 100 nM; that for `CC1=C(C#N)C(c2ccc3[nH]ncc3c2)C(C#N)=C2CCCCN12` (stereo not drawn) [compound 304, 6,7,8,9-tetrahydro-2-(1H-indazol-5-yl)-4-methyl-2H-quinolizine-1,3-dicarbonitrile], under 100 nM.
Then `CC1=C(C#N)C(c2ccc3[nH]ncc3c2)C(C#N)=C(c2ccncc2)N1` (stereo not drawn) [compound 265, 1,4-dihydro-4-(1H-indazol-5-yl)-6-methyl-[2,4′-bipyridine]-3,5-dicarbonitrile], with under 100 nM.
For the compound `CC1=C(C#N)C(c2ccc3[nH]ncc3c2)C(C#N)=C(c2ccccc2)N1` (stereo not drawn) [compound 249, 1,4-dihydro-4-(1H-indazol-5-yl)-2-methyl-6-phenyl-3,5-pyridinedicarbonitrile], the IC50 is under 100 nM.
In the case of `CC(=O)Nc1n[nH]c2ccc(C3C(C#N)=C(C)NC(C)=C3C#N)cc12` [compound 89, N-[5-(3,5-dicyano-1,4-dihydro-2,6-dimethyl-4-pyridinyl)-1H-indazol-3-yl]-acetamide], the IC50 is under 100 nM.
The result for `CNC(=O)c1cccc(C2C(C#N)=C(C)NC(c3ccccc3)=C2C#N)c1` (stereo not drawn) [compound 240, 3-(3,5-dicyano-1,4-dihydro-2-methyl-6-phenyl-4-pyridinyl)-N-methyl-benzamide] reads 500 to 2500 nM; that for `CC1=C(C#N)C(c2cccc(NC(=O)c3ccncc3)c2)C(C#N)=C(C)N1` [compound 57, N-[3-(3,5-dicyano-1,4-dihydro-2,6-dimethyl-4-pyridinyl)phenyl]-4-pyridinecarboxamide], 500 to 2500 nM.
The result for `CC1=C(C#N)C(c2ccc3[nH]nc(C)c3c2)C(C#N)=C(C)N1C1CC1` [compound 301, 1-cyclopropyl-1,4-dihydro-2,6-dimethyl-4-(3-methyl-1H-indazol-5-yl)-3,5-pyridinedicarbonitrile] reads under 100 nM.

For orientation: IC50 means the point on the concentration scale where inhibition reaches its midpoint.
